From the kinase profiling compilation of Christmann-Franck et al. (2016)

Legend:
Assay in all cases: KINOMEscan competition binding
Conditions in all cases: compound 10.0 µM
[1] = target: PKN2 (human) (UniProt Q16513)
[2] = target: AURKC (human) (UniProt Q9UQB9)
[3] = target: DCLK2 (human) (UniProt Q8N568)
[4] = target: CDC42BPB (human) (UniProt Q9Y5S2)
[5] = target: JAK3 JH1 catalytic (human) (UniProt P52333)
[6] = target: MAPKAPK5 (human) (UniProt Q8IW41)
[7] = target: CAMKK2 (human) (UniProt Q96RR4)
[8] = target: RPS6KA6 KD1 (human) (UniProt Q9UK32)
[9] = target: CSK (human) (UniProt P41240)
[10] = target: MAP4K4 (human) (UniProt O95819)
[11] = target: ROCK2 (human) (UniProt O75116)
[12] = target: TYRO3 (human) (UniProt Q06418)
[13] = target: RAF1 (human) (UniProt P04049)
[14] = target: CSNK2A1 (human) (UniProt P68400)
[15] = target: MARK3 (human) (UniProt P27448)
[16] = target: JAK1 JH1 catalytic (human) (UniProt P23458)
[17] = target: NTRK3 (human) (UniProt Q16288)
[18] = target: LIMK1 (human) (UniProt P53667)
LIMK1 (human), sequence (P53667 whole entry, looked up): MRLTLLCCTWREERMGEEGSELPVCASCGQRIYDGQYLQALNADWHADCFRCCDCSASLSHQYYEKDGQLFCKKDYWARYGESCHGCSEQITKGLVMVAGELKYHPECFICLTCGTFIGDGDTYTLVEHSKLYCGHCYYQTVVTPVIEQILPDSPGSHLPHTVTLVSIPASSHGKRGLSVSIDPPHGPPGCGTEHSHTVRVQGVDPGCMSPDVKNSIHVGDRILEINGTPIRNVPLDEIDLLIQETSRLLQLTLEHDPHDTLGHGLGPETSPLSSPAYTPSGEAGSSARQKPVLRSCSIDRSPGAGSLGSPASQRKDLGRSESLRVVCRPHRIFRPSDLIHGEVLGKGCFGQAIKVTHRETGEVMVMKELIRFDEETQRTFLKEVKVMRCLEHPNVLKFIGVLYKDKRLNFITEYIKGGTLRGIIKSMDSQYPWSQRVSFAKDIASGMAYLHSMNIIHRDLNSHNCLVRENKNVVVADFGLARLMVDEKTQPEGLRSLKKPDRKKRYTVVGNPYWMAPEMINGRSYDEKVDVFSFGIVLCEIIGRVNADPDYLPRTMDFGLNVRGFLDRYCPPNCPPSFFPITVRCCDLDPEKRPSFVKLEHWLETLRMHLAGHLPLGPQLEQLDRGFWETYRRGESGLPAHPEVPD

[19] = target: PAK2 (human) (UniProt Q13177)
PAK2 (human), sequence (Q13177 whole entry, looked up): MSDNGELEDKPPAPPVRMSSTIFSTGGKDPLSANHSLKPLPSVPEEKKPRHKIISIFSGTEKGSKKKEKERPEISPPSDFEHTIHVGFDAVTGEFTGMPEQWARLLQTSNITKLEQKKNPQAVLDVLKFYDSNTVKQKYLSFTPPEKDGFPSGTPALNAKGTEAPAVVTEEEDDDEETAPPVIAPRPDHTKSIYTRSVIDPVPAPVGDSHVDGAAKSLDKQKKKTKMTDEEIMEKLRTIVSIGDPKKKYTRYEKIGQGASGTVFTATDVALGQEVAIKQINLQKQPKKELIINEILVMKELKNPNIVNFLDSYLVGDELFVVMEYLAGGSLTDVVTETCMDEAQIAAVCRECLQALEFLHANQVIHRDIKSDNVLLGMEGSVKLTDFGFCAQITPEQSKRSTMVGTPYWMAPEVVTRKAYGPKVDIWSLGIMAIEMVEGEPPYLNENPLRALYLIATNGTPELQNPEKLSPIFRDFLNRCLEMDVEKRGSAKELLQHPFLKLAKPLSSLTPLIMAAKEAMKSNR

[20] = target: GSK3B (human) (UniProt P49841)
[21] = target: FGFR3 (human) (UniProt P22607)
[22] = target: STK33 (human) (UniProt Q9BYT3)
STK33 (human), sequence (Q9BYT3 whole entry, looked up): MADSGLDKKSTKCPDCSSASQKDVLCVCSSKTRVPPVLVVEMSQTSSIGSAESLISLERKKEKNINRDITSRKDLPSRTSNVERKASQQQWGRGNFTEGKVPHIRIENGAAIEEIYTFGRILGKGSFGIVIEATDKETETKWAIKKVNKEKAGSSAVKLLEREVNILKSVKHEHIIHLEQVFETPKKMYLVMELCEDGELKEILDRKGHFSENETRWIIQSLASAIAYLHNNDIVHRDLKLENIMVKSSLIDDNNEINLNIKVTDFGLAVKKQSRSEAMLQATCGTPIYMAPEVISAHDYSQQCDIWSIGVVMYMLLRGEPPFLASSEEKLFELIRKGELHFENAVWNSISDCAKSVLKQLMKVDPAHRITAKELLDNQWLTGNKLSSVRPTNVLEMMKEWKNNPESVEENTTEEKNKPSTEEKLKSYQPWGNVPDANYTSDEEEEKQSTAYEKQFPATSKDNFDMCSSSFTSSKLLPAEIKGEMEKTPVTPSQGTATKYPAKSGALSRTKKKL

[23] = target: DCLK3 (human) (UniProt Q9C098)
[24] = target: BMPR2 (human) (UniProt Q13873)
[25] = target: IGF1R (human) (UniProt P08069)
[26] = target: MERTK (human) (UniProt Q12866)
[27] = target: RPS6KA2 KD1 (human) (UniProt Q15349)
RPS6KA2 KD1 (human), sequence (Q15349 whole entry, looked up): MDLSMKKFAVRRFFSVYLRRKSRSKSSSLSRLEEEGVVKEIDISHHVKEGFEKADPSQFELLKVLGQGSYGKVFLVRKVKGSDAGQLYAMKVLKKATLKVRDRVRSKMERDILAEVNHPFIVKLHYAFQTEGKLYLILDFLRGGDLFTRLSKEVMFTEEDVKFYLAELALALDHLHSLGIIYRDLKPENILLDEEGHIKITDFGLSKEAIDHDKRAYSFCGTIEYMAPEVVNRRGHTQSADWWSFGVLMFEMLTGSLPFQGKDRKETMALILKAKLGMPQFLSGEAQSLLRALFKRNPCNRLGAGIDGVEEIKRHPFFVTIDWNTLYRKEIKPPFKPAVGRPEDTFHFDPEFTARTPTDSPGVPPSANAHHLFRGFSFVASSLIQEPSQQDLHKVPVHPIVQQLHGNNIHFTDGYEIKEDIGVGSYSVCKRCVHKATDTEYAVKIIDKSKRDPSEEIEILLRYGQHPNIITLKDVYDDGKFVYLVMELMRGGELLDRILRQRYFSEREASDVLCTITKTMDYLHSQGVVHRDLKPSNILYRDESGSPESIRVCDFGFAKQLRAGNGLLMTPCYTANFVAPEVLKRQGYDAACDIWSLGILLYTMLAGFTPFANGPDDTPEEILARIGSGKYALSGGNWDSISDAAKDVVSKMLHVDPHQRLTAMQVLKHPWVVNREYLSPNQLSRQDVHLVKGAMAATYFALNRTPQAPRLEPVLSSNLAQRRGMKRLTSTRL

[28] = target: BRSK2 (human) (UniProt Q8IWQ3)
[29] = target: NUAK1 (human) (UniProt O60285)
[30] = target: PDPK1 (human) (UniProt O15530)
[31] = target: PRKG2 (human) (UniProt Q13237)
PRKG2 (human), sequence (Q13237 whole entry, looked up): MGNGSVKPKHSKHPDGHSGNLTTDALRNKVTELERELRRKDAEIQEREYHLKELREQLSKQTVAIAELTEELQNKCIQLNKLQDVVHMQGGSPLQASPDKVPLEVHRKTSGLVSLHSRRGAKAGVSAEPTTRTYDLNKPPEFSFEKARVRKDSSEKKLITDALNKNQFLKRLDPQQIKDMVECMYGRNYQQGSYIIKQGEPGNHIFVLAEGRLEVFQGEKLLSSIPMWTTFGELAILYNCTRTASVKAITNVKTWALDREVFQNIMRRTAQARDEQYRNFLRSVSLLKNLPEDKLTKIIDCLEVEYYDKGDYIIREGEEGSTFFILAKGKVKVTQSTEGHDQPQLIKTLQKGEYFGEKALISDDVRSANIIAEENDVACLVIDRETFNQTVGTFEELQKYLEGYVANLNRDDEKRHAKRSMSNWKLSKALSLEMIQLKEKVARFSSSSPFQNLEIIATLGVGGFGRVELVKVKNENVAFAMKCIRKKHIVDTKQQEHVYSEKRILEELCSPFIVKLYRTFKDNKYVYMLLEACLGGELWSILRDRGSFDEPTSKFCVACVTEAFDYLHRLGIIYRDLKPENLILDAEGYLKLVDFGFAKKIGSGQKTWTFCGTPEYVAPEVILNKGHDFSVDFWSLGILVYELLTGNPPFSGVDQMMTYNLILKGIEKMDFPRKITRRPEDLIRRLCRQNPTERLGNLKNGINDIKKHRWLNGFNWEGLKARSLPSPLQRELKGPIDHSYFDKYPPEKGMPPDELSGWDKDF

[32] = target: CAMKK1 (human) (UniProt Q8N5S9)
[33] = target: PRKCD (human) (UniProt Q05655)
[34] = target: MARK2 (human) (UniProt Q7KZI7)
[35] = target: ERBB4 (human) (UniProt Q15303)
[36] = target: AKT3 (human) (UniProt Q9Y243)
[37] = target: STK24 (human) (UniProt Q9Y6E0)
[38] = system: FLT3 (human), P36888 [ITD]
[39] = target: IKBKB (human) (UniProt O14920)
[40] = target: BLK (human) (UniProt P51451)

CDC42BPB (human), sequence (Q9Y5S2 whole entry, looked up): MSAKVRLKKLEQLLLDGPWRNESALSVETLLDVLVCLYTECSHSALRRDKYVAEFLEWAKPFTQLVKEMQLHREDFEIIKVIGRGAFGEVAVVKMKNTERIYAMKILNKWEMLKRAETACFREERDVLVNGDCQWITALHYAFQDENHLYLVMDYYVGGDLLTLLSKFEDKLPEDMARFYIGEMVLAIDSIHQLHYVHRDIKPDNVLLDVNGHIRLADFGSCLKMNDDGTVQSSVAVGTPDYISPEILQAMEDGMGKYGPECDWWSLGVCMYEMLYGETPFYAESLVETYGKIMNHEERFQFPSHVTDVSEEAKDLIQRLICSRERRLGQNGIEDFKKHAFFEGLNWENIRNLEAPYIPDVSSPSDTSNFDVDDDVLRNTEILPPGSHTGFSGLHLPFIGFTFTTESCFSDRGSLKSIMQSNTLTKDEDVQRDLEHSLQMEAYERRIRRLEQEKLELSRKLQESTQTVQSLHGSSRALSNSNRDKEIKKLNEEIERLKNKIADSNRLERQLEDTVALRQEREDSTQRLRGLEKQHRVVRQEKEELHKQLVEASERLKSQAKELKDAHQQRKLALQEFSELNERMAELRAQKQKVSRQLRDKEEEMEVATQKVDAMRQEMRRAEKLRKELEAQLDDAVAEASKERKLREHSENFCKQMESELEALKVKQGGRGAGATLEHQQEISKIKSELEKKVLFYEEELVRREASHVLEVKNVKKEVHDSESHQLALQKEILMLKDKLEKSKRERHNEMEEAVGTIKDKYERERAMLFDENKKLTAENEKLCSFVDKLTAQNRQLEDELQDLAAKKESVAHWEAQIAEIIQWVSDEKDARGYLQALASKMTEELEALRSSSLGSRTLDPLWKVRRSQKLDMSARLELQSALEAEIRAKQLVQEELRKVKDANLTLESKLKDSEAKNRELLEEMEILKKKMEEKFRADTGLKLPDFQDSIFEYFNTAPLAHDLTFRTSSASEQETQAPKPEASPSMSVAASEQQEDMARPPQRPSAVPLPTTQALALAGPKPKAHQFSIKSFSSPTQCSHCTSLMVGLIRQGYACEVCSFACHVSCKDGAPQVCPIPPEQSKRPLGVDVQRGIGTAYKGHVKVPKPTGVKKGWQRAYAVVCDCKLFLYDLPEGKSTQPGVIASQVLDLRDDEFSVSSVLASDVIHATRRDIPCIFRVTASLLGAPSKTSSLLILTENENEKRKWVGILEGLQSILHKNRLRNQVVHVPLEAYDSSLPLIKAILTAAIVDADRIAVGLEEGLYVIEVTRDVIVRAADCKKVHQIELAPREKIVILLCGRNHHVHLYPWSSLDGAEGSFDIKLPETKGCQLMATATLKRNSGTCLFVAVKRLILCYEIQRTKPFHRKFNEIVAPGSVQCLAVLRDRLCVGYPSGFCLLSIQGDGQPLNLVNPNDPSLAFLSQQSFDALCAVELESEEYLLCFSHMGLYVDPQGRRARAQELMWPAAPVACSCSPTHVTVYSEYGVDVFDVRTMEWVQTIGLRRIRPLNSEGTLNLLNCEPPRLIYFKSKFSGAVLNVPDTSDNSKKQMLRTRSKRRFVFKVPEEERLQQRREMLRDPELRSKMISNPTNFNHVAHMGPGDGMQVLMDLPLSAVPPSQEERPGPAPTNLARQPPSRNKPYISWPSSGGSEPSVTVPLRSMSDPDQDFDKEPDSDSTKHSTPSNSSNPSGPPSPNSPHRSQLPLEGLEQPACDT

Row | Structure (SMILES) | kinase still bound, per cent of control [2] | kinase still bound, per cent of control [3] | kinase still bound, per cent of control [4] | kinase still bound, per cent of control [6] | kinase still bound, per cent of control [7] | kinase still bound, per cent of control [8] | kinase still bound, per cent of control [9] | kinase still bound, per cent of control [10] | kinase still bound, per cent of control [11] | kinase still bound, per cent of control [12] | kinase still bound, per cent of control [14] | kinase still bound, per cent of control [16] | kinase still bound, per cent of control [17] | kinase still bound, per cent of control [18] | kinase still bound, per cent of control [19] | kinase still bound, per cent of control [21] | kinase still bound, per cent of control [22] | kinase still bound, per cent of control [23] | kinase still bound, per cent of control [24] | kinase still bound, per cent of control [25] | also measured
1 | COc1cc(N2CCN(C)CC2)ccc1Nc1nc(N)c(C(=O)c2c(Cl)cccc2Cl)s1 | 100% | 4.1% | 100% | 100% | 14% | 79% | 90% | 76% | 88% | 100% | 91% | 100% | 100% | 74% | 100% | 99% | 83% | 14% | 82% | 72% | kinase still bound, per cent of control [1]: 98%; kinase still bound, per cent of control [5]: 100%; kinase still bound, per cent of control [13]: 100%; kinase still bound, per cent of control [15]: 100%; kinase still bound, per cent of control [20]: 100%; kinase still bound, per cent of control [26]: 87%; kinase still bound, per cent of control [27]: 84%; kinase still bound, per cent of control [28]: 87%; kinase still bound, per cent of control [29]: 100%; kinase still bound, per cent of control [30]: 100%; kinase still bound, per cent of control [31]: 74%; kinase still bound, per cent of control [32]: 6.3%; kinase still bound, per cent of control [33]: 68%; kinase still bound, per cent of control [34]: 90%; kinase still bound, per cent of control [35]: 100%; kinase still bound, per cent of control [36]: 100%; kinase still bound, per cent of control [37]: 77%; kinase still bound, per cent of control [38]: 87%; kinase still bound, per cent of control [39]: 96%
2 | CC[C@@H]1C(=O)N(C)c2cnc(Nc3ccc(C(=O)NC4CCN(C)CC4)cc3OC)nc2N1C1CCCC1 | 100% | 13% | 100% | 100% | 1.9% | 100% | 100% | 100% | 100% | 100% | 100% | 100% | 100% | 100% | 100% | 100% | 14% | 100% | 100% | 100% | kinase still bound, per cent of control [5]: 100%; kinase still bound, per cent of control [13]: 100%; kinase still bound, per cent of control [15]: 100%; kinase still bound, per cent of control [20]: 100%; kinase still bound, per cent of control [26]: 100%; kinase still bound, per cent of control [27]: 100%; kinase still bound, per cent of control [28]: 100%; kinase still bound, per cent of control [29]: 100%; kinase still bound, per cent of control [30]: 100%; kinase still bound, per cent of control [31]: 100%; kinase still bound, per cent of control [32]: 1.9%; kinase still bound, per cent of control [33]: 100%; kinase still bound, per cent of control [34]: 100%; kinase still bound, per cent of control [35]: 100%; kinase still bound, per cent of control [36]: 100%; kinase still bound, per cent of control [37]: 100%; kinase still bound, per cent of control [38]: 100%; kinase still bound, per cent of control [39]: 100%
3 | O=C(O)c1ccc(Nc2ncc3c(n2)-c2ccc(Cl)cc2C(c2c(F)cccc2F)=NC3)cc1 | 20% | 94% | 69% | 100% | 72% | 36% | 15% | 86% | 89% | 46% | 29% | 90% | 65% | 85% | 71% | 9% | 100% | 92% | 26% | 73% | kinase still bound, per cent of control [1]: 79%; kinase still bound, per cent of control [15]: 100%; kinase still bound, per cent of control [40]: 0.7%; kinase still bound, per cent of control [26]: 3%; kinase still bound, per cent of control [27]: 100%; kinase still bound, per cent of control [28]: 100%; kinase still bound, per cent of control [29]: 67%; kinase still bound, per cent of control [30]: 35%; kinase still bound, per cent of control [31]: 96%; kinase still bound, per cent of control [32]: 89%; kinase still bound, per cent of control [33]: 100%; kinase still bound, per cent of control [34]: 93%; kinase still bound, per cent of control [35]: 52%; kinase still bound, per cent of control [36]: 100%; kinase still bound, per cent of control [37]: 76%; kinase still bound, per cent of control [38]: 87%; kinase still bound, per cent of control [39]: 100%
4 | CCOc1cc2ncc(C#N)c(Nc3ccc(OCc4ccccn4)c(Cl)c3)c2cc1NC(=O)/C=C/CN(C)C | 95% | 100% | 100% | 89% | 89% | 86% | 13% | 6.2% | 86% | 100% | 94% | 83% | 78% | 100% | 34% | 98% | 42% | 100% | 78% | 100% | kinase still bound, per cent of control [1]: 72%; kinase still bound, per cent of control [5]: 100%; kinase still bound, per cent of control [13]: 100%; kinase still bound, per cent of control [40]: 3%; kinase still bound, per cent of control [26]: 8.4%; kinase still bound, per cent of control [27]: 88%; kinase still bound, per cent of control [28]: 100%; kinase still bound, per cent of control [29]: 61%; kinase still bound, per cent of control [30]: 88%; kinase still bound, per cent of control [31]: 92%; kinase still bound, per cent of control [32]: 100%; kinase still bound, per cent of control [33]: 100%; kinase still bound, per cent of control [34]: 86%; kinase still bound, per cent of control [35]: 0%; kinase still bound, per cent of control [36]: 100%; kinase still bound, per cent of control [37]: 0.35%; kinase still bound, per cent of control [38]: 86%; kinase still bound, per cent of control [39]: 100%
